Laboratory results reported in US4803157A, “Hydrolyzable fluorescent substrates for phosphatases and analytical use thereof” (Eastman Kodak Company, priority 1986, dated 1989).
Where a name gives a salt, the structure may show the parent alone.

Legend:
[1] = system: calf intestine alkaline phosphatase; assay: Kinetic study of alkaline phosphatase with substrate (double reciprocal plot); format: biochemical; settings: 540 nm, substrate 0.1-10 mmolar, enzyme 0.01 I.U./ml, sodium carbonate 100 mmolar, pH 10
Source text: The magnesium salt substrate prepared in Example 1 was used to determine reaction rates and kinetic parameters for alkaline phosphatase at 540 nm. The study was done by using the substrate (concentration range 0.1 mmolar to 10 mmolar), calf intestine alkaline phosphatase (0.01 I.U./ml), sodium carbonate (100 mmolar, pH 10), magnesium chloride (1 mmolar) and zinc perchlorate (1 mmolar). From the data obtained, a double reciprocal plot was drawn.

[2] = system: beef liver ALP; assay: Solution assay for alkaline phosphatase (fluorescence); format: biochemical; settings: excitation 535 nm, emission 580 nm
Method: A solution was prepared using the substrate of Example 1 (10^-5 molar), magnesium acetate ([…]) and TRIS buffer (0.1 molar, pH 8.5). One milliliter of this solution was placed in each of two test cells. To one cell was added beef liver ALP (100 μl, 10^-5 molar). No ALP was placed in the second cell.
The relative fluorescence of the solution in the test cell containing the ALP-hydrolyzed substrate was measured at an excitation of 535 nm and an emission of 580 nm. […]

| Compound | rate of reaction (Vmax) [1] | Km ([1]; MgCl2 1 mmolar, zinc perchlorate 1 mmolar, read-out: Michaelis constant (Km)) | relative fluorescence of unhydrolyzed substrate ([2]; no ALP added) | relative fluorescence of ALP-hydrolyzed substrate ([2]; substrate 10^-5 molar, TRIS 0.1 molar pH 8.5, with beef liver ALP) |
| --- | --- | --- | --- | --- |
| O=C1C=Cc2ccc(OP(=O)(O)O)c3cccc1c23 [phenalenone-6-phosphate magnesium salt] | 0.029 absorbance (A) units/minute | 1400 µM |  |  |
| O=C1C=Cc2ccc(OP(=O)(O)O)c3cccc1c23 [substrate of Example 1, PHENALENONE-6-PHOSPHATE] |  |  | Minimal fluorescence | rapid generation of fluorescence |
